Molecules are shown by their SMILES.

For orientation: melting point means the temperature, or range, at which the solid turns liquid. Compound `O=C(NCc1ccccc1)C1C=Nc2ccccc2S1` (stereo not shown) gave a melting point of 160 to 162 °C.

These data come from patent US6448246B1 (dated 2002).
